{
  "source": "patent US11702646B2",
  "about": "“Methods for modulating RNA splicing” (PTC THERAPEUTICS, INC., priority 2016, dated 2023)",
  "test_system": "iExons for certain genes (as specified in the figures)",
  "assay": "Dose dependent production of iExons in the presence of compound or control (DMSO)",
  "format": "cell-based",
  "settings": "FIGS. 2A-2D, versus control (DMSO)",
  "description": "In some embodiments, a dose-response assay is performed. […] In another embodiment, the dose-response assay comprises: (a) contacting each well of a microtiter plate containing cells with a different concentration of a compound of Formula (I) or a form thereof; (b) determining the amount of an RNA transcript produced by cells in each well; and (c) assessing the change of the amount of the RNA transcript at the different concentrations of the compound or form thereof. […]\nIn specific embodiments, the amount of alternatively spliced forms of the RNA transcripts of a particular gene are measured to see if there is an alteration in the amount of one, two or more alternatively spliced forms of the RNA transcripts of the gene. In some embodiments, the amount of an isoform(s) encoded by a particular gene is measured to see if there is an alteration in the amount of the isoform(s). In certain embodiments, the levels of spliced forms of RNA are quantified by RT-PCR, RT-qPCR, RNA-Seq, digital color-coded barcode technology, or Northern blot. […] In certain embodiments, splicing is measured in vitro using nuclear extracts. In some embodiments, detection is based on measuring radioactivity or fluorescence. […] In a specific embodiment, modulation of RNA transcripts is assessed as described in the Examples described herein.",
  "data": [
    {"smiles": "CCc1nc(C)cn2nc(-c3cc(=O)n4cc(C5CCN(C)CC5)cc(C)c4n3)cc12", "note": "[Compound 774]", "values": [
      {"measurement": "dose dependent production of iExons for certain genes", "result": "dose dependent production of iExons"}
    ]}
  ]
}
